One may read the microsomal CLint as the rate of metabolic loss divided by the concentration.

Results on 22 compounds are retold here after patent US20080090805A1, “CB-1 MODULATING COMPOUNDS AND THEIR USE” (ACADIA PHARMACEUTICALS INC., priority 2005, published 2008).

The nature of data set [1]: Clearance study, liver microsomes (rats). To be noted: rat, pH 7.4. Background: Liver microsomes are vesicles of endoplasmic reticulum, rich in cytochrome P450 enzymes.
Data set [2] in a line: Clearance study, liver microsomes (human). To be noted: pH 7.4.
Data set [3] relates to NSA mice. The data set is described as follows: Hypothermia study (block of CP 55,940-induced hypothermia). The data set is classed as in vivo. The arrangement: Hypothermia 3 mg/kg / Hypothermia 0.3 mg/kg: unit not given here. The procedure:
. […] Core body temperatures were then obtained at various time points following CP 55,940 administration. Core body temperature (to the nearest 0.1° C.) was obtained by rectal probe.

On to `Cc1ccc(CNC(=O)c2ccc3c(c2)N=C(c2ccc(F)cc2)c2ccccc2S3)o1` [drawing 1711], for which the microsomal CLint at 1 μM in data set [1] was determined as 258 µL/min/mg; in data set [2] it was 39 µL/min/mg. In the same order, the values of `CCN(CCNC(=O)c1ccc2c(c1)N=C(c1ccc(Cl)cc1)c1ccccc1S2)c1ccccc1` [drawing 1698] are 210 µL/min/mg and 157 µL/min/mg.

Turning to `O=C(NCCCC(F)(F)F)c1ccc2c(c1)N=C(c1ccc(Cl)cc1)c1ccccc1S2` [drawing 1703], the microsomal CLint at 1 μM was 86 µL/min/mg in data set [1] and 13 µL/min/mg in data set [2].

Regarding `CCCCNC(=O)c1ccc2c(c1)N=C(c1ccc(Cl)cn1)c1ccc(F)cc1S2` [drawing 1778], the microsomal CLint at 1 μM in data set [1] was 227 µL/min/mg; in data set [2], 29 µL/min/mg.

Regarding `Cc1ccsc1C1=Nc2cc(C(=O)NCCCC(F)(F)F)ccc2Sc2ccccc21` [drawing 1701], the results for the microsomal CLint at 1 μM in data set [1] and in data set [2] were 297 µL/min/mg and 379 µL/min/mg, respectively. On to `Cc1ccc(CNC(=O)c2ccc3c(c2)N=C(c2cccc(Cl)c2)c2ccccc2S3)o1` [drawing 1705], for which the microsomal CLint at 1 μM in data set [1] amounted to 147 µL/min/mg; in data set [2], 37 µL/min/mg. In the same order, the values of `CCCCNC(=O)c1ccc2c(c1)N=C(c1cccc(Cl)c1)c1cc(Cl)ccc1S2` [drawing 1750] are 52 µL/min/mg and 13 µL/min/mg. In the same order, the values of `CCCCNC(=O)c1ccc2c(c1)N=C(c1ccc(Cl)s1)c1cc(Cl)ccc1S2` [drawing 1678] are 63 µL/min/mg and 22 µL/min/mg. On the same counts, the results for `O=C(NCCc1ccc(Cl)cc1)c1ccc2c(c1)N=C(N1CCC(F)CC1)c1ccccc1S2` [drawing 1734] are 670 µL/min/mg and 476 µL/min/mg. Take `O=C(NCc1ccc(F)cc1)c1ccc2c(c1)N=C(N1CCCCC1)c1ccccc1S2` [drawing 1738]: the figures for the microsomal CLint at 1 μM in data set [1] and in data set [2] were 735 µL/min/mg and 255 µL/min/mg, respectively. With `O=C(NCCc1cccc(Cl)c1)c1ccc2c(c1)N=C(c1ccc(F)cc1)c1ccccc1S2` [drawing 1768], the microsomal CLint at 1 μM in data set [1] turned out to be 126 µL/min/mg; in data set [2] it was 37 µL/min/mg. In the case of `CCCCNC(=O)c1ccc2c(c1)N=C(c1ccc(Cl)cc1)c1cc(Cl)ccc1S2` [drawing 1688], the results for the microsomal CLint at 1 μM in data set [1] and in data set [2] were 52 µL/min/mg and 13 µL/min/mg, respectively. With `CC(C)CNC(=O)c1ccc2c(c1)N=C(c1ccc(Cl)s1)c1ccc(Cl)cc1S2` [drawing 1679], the microsomal CLint at 1 μM turned out to be 56 µL/min/mg in data set [1] and 5 µL/min/mg in data set [2]. In the case of `Cc1ccc(N2CCN(C(=O)c3ccc4c(c3)N=C(c3ccc(Cl)cc3)c3ccccc3S4)CC2)c(C)c1` [drawing 1808], the results for the microsomal CLint at 1 μM in data set [1] and in data set [2] were 39 µL/min/mg and 37 µL/min/mg, respectively. In the same order, the values of `CC(C)CNC(=O)c1ccc2c(c1)N=C(c1ccsc1)c1ccccc1S2` [drawing 1753] are 427 µL/min/mg and 546 µL/min/mg. Turning to `CC(C)CNC(=O)c1ccc2c(c1)N=C(c1ccc(F)cc1)c1ccccc1S2` [drawing 1636], in data set [3], the “Hypothermia 0.3 mg/kg” value was 14 and the “Hypothermia 3 mg/kg” value was 53. In the case of `O=C(NN1CCCCC1)c1ccc2c(c1)N=C(c1ccc(Cl)s1)c1ccccc1S2` [drawing 1561], in data set [3], the “Hypothermia 3 mg/kg” value was determined as 42. With `CCCCNC(=O)c1ccc2c(c1)N=C(c1ccc(F)cn1)c1ccccc1S2` [drawing 1629], in data set [3], the “Hypothermia 3 mg/kg” value is recorded as 54.

As to `O=C(NCc1cccs1)c1ccc2c(c1)N=C(c1ccc(F)cc1)c1ccccc1S2` [drawing 1558], in data set [3], the “Hypothermia 0.3 mg/kg” value is on record as 19 and the “Hypothermia 3 mg/kg” value was 90. In data set [3] (block of CP 55,940-induced hypothermia), this compound gave a Hypothermia ID50 of 1 mg/kg. Turning to `O=C(NN1CCCCC1)c1ccc2c(c1)N=C(c1ccc(Cl)cn1)c1ccccc1S2` [drawing 1651], the “Hypothermia 3 mg/kg” value in data set [3] is on record as 57. Regarding `CC(C)CNC(=O)c1ccc2c(c1)N=C(c1ccc(Cl)cc1)c1ccc(F)cc1S2` [drawing 1556], the “Hypothermia 3 mg/kg” value in data set [3] is recorded as 41. Regarding `O=C(NCc1cccs1)c1ccc2c(c1)N=C(c1cccc(Cl)c1)c1ccccc1S2` [drawing 1622], the “Hypothermia 3 mg/kg” value in data set [3] is 61.
